Reference: patent publication US8637484B2, “Modulation of growth hormone receptor expression and insulin-like growth factor expression” (Antisense Therapeutic Limited, priority 2003, dated 2014)

How the values were obtained:
[1] = tested on: serum insulin-like growth factor-I; test: Serum IGF-I by radioimmunoassay, 1 week pilot study in Balb/C(a) mice; type: in vivo, mouse; conditions: 2 doses per day at 25 μg each
Method: Forty male Balb/C(a) mice weighing 9 to 10 g were placed into cages, 4 animals per cage, and allowed to assimilate into their environment with new littermates ˜1 week prior (Day −7) to the commencement of 1 week study. Mice of this age would be at their maximum growth rate. Their body weights were measured and recorded every second day during this period. When mice weighed 11 g (day −2), a blood sample was collected under anesthesia as described below, and a serum IGF-I assay was performed to determine pre-treatment values and to aid in the assigning of mice to treatment groups in order to reduce animal variability. To obtain the blood sample, the animals were anaesthetized with pentobarbital (50 mg/kg i.p.) and non-fasting blood samples collected exactly 5 minutes later from the retrobulbar plexus through heparinized capillary tubes under light ether anesthesia. The 40 animals were placed into five groups with each group having a similar weight average and similar IGF-I average concentration for the trial.
Animals (n=8/group) were designated to the following five treatment groups:
Saline, antisense, mismatch control and octreotide samples were prepared, and coded for blinding. Animals were given a subcutaneous dose of saline every second day, and mismatch control or antisense with administration on days 0, 2, 4, 6. Animals were given twice daily doses of 25 μg octreotide. Animals were housed 4 per cage, for the duration of one week. They had access to a pre-determined quantity of standard mouse food and water at all times throughout the experiment. They were housed in a quiet, temperature- and humidity-maintained environment for the entirety of the study. At day 0 and before treatment on each day or second day, the animals had their body weight and food intake measured, enabling the correct dose of agent to be administered. The animals were monitored closely for any changes in fur, skin, eye, locomotion or other changes in behavior. No problems were observed. Every second day from day −7 to day 7 body weight and food intake were measured.
On day 7, one day after the last dose of antisense, and/or after the last octreotide dose, the animals were anaesthetized with pentobarbital (50 mg/kg i.p.) and non-fasting blood samples collected exactly 5 minutes later from the retrobulbar plexus through heparinized capillary tubes under light ether anesthesia (as on day −7 and 0).
At day −2 and day 7, serum IGF-I measurement was done by radioimmunoassay. Serum IGF-I level is the most widely used measure of growth hormone biological activity in human therapy. It is used to measure the efficacy of growth hormone antagonist treatments like Trovert, which block cells' responsiveness to excess growth hormone, and dopamine agonists and octreotide somatostatin […] drugs that block growth hormone secretion from the pituitary.

[2] = tested on: serum insulin-like growth factor-I; test: as above; type: in vivo, mouse
[3] = tested on: serum insulin-like growth factor-I; conditions: patients with acromegaly; cited from earlier work
sIGF-1 = conditions: cited from earlier work
serum IGF-I = conditions: high doses, 12 week study, cited from earlier work

Substance: octreotide
- effect on serum IGF-I levels at day 7 [1]: no effect
- IGF-I (ng/ml) Day 7 ([2]; 25 μg twice per day): 114.34 ± 41.36 ng/mL
- IGF-I (ng/ml) Day −2 ([2]; pre-treatment value of the group given 25 μg/kg twice per day): 199.72 ± 44.47 ng/mL
- patients in whom treatment is effective [3]: 60-65%
- reduction of sIGF-1 (sIGF-1; 5000 μg/day sc, maximally tolerated doses, 15 month study): 51%
- ocular disease (sIGF-1; vs placebo of 42%): 27%
- reduction of serum IGF-I (serum IGF-I; 11 patients): 45%
- reduction of glomerular filtration rate relative to placebo (serum IGF-I): 22-33%
